B1: SHBG (protein, UniProt P04278 30-402, looked up)
Sex hormone-binding globulin: LRPVLPTQSAHDPPAVHLSNGPGQEPIAVMTFDLTKITKTSSSFEVRTWDPEGVIFYGDTNPKDDWFMLGLRDGRPEIQLHNHWAQLTVGAGPRLDDGRWHQVEVKMEGDSVLLEVDGEEVLRLRQVSGPLTSKRHPIMRIALGGLLFPASNLRLPLVPALDGCLRRDSWLDKQAEISASAPTSLRSCDVESNPGIFLPPGTQAEFNLRDIPQPHAEPWAFSLDLGLKQAAGSGHLLALGTPENPSWLSLHLQDQKVVLSSGSGPGLDLPLVLGLPLQLKLSMSRVVLSQGSKMKALALPPLGLAPLLNLWAKPQGRLFLGALPGEDSSTSFCLNGLWAQGQRLDVDQALNRSHEIWTHSCPQSPGNGTDASH

Columns and labels:
[1] = Baseline (24-hour pre-dose) and normal ranges of endogenous analytes (free/total testosterone, DHT, estradiol, SHBG); details: for Pooled Baseline Max / Pooled Baseline Min: baseline range observed, all cohorts pooled; for Pooled Baseline Max / Baseline Max, Dose Cohort 600 (μg) / Baseline Max, Dose Cohort 1200 (μg) / Baseline Max, Dose Cohort 1800 (μg): maximum; for Pooled Baseline Min / Baseline Min, Dose Cohort 600 (μg) / Baseline Min, Dose Cohort 1200 (μg) / Baseline Min, Dose Cohort 1800 (μg): minimum; for Baseline Max, Dose Cohort 600 (μg) / Baseline Min, Dose Cohort 600 (μg) / Baseline Max, Dose Cohort 1200 (μg) / Baseline Min, Dose Cohort 1200 (μg) / Baseline Max, Dose Cohort 1800 (μg) / Baseline Min, Dose Cohort 1800 (μg): baseline range; for Baseline Max, Dose Cohort 600 (μg) / Baseline Min, Dose Cohort 600 (μg): 600 μg dose cohort; for Baseline Max, Dose Cohort 1200 (μg) / Baseline Min, Dose Cohort 1200 (μg): 1200 μg dose cohort; for Baseline Max, Dose Cohort 1800 (μg) / Baseline Min, Dose Cohort 1800 (μg): 1800 μg dose cohort
[2] = reported normal range, cited from earlier work; for Normal Range Max: maximum; for Normal Range Min: minimum
[3] = General properties of testosterone: stability; type: physicochemical; details: in air

Molecule	Pooled Baseline Max [1]	Pooled Baseline Min [1]	Baseline Max, Dose Cohort 600 (μg) [1]	Baseline Min, Dose Cohort 600 (μg) [1]	Baseline Max, Dose Cohort 1200 (μg) [1]	Baseline Min, Dose Cohort 1200 (μg) [1]	Baseline Max, Dose Cohort 1800 (μg) [1]	Baseline Min, Dose Cohort 1800 (μg) [1]	Normal Range Max [2]	Normal Range Min [2]	Stability [3]
C[C@]12CCC(=O)C[C@@H]1CC[C@@H]1[C@@H]2CC[C@]2(C)[C@@H](O)CC[C@@H]12 [Dihydrotestosterone]	32.60 ng/dL	5.02 ng/dL	22.10 ng/dL	5.29 ng/dL	25.30 ng/dL	5.04 ng/dL	32.60 ng/dL	5.02 ng/dL	22.00 ng/dL	4.00 ng/dL	
C[C@]12CC[C@@H]3c4ccc(O)cc4CC[C@H]3[C@@H]1CC[C@@H]2O [Estradiol]	12.2 ng/dL	1.7 ng/dL	12.2 ng/dL	2.09 ng/dL	11.9 ng/dL	1.7 ng/dL	9.74 ng/dL	1.77 ng/dL			
C[C@]12CC[C@H]3[C@@H](CCC4=CC(=O)CC[C@@]43C)[C@@H]1CC[C@@H]2O [Testosterone, 17β-Hydroxyandrost-4-en-3-one]											powder. It is odourless, and stable in air.
B1	137.00 nmol/L	15.30 nmol/L	102.00 nmol/L	15.30 nmol/L	86.70 nmol/L	16.00 nmol/L	137.00 nmol/L	25.20 nmol/L	114.00 nmol/L	18.00 nmol/L	
